Results taken from ChEMBL document CHEMBL1201862, “PubChem BioAssay data set” (2004).
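48-hour exposure; five concentrations; linearly interpolated endpoints. The concentration for 50% growth inhibition is given as GI50.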 The source made the active and inactive calls. Cut-off read from the data, not from the text of the source: active = GI50 up to about 1.1 µM and inactive = higher.

Tests used:
Assay in all cases: NCI tumour cell line growth inhibition, 48 h
[1] = tested on: MCF7
[2] = tested on: Hs-578T
[3] = tested on: HOP-92
[4] = tested on: HL-60
[5] = tested on: K562
[6] = tested on: UACC-62
[7] = tested on: SNB-75
[8] = tested on: CAKI-1
[9] = tested on: NCI-H226
[10] = tested on: U-251
[11] = tested on: CCRF-CEM
[12] = tested on: A549
[13] = tested on: SN12C
[14] = tested on: NCI-H460
[15] = tested on: SW-620
[16] = tested on: DU-145
[17] = tested on: SK-MEL-28
[18] = tested on: 786-0
[19] = tested on: RPMI-8226
[20] = tested on: SR

Measured: GI50

CC(=O)Oc1c(OC(C)C)cc(=O)n2ccsc12
inactive: [1] 52.6 µM | [2] > 100 µM | [3] > 100 µM | [4] 18.5 µM | [5] 42.8 µM | [6] > 100 µM | [7] > 100 µM | [8] > 100 µM | [9] > 100 µM | [10] > 100 µM | [11] 16.1 µM | [12] > 100 µM | [13] > 100 µM | [14] > 100 µM | [15] 82 µM | [16] > 100 µM | [17] > 100 µM | [18] > 100 µM | [19] 29.4 µM

CC(NC(=O)C(N)CC(=O)O)NC(=O)C1CCC1 (centres undefined)
inactive: [1] > 100 µM | [2] > 100 µM | [5] > 100 µM | [6] > 100 µM | [7] > 100 µM | [8] > 100 µM | [9] > 100 µM | [10] > 100 µM | [11] > 100 µM | [12] > 100 µM | [13] > 100 µM | [14] > 100 µM | [15] > 100 µM | [16] > 100 µM | [17] > 100 µM | [18] > 100 µM | [19] > 100 µM

O=C(C1OC1c1ccc([N+](=O)[O-])cc1)C12CC3CC(CC(C3)C1)C2 (centres undefined)
inactive: [1] 13.3 µM | [2] 19 µM | [3] 20.3 µM | [4] 3.46 µM | [5] 13.1 µM | [6] 12.1 µM | [7] 19.1 µM | [8] 20.3 µM | [9] 17.2 µM | [10] 11.9 µM | [11] 2.79 µM | [12] 25.7 µM | [13] 13.1 µM | [14] 13.6 µM | [15] 20.7 µM | [16] 18.2 µM | [17] 17.6 µM | [18] 9.98 µM

COC(=O)C(Cc1ccc(OC)cc1O)NC(=O)OC(C)(C)C (centres undefined)
inactive: [1] > 100 µM | [2] > 100 µM | [4] > 100 µM | [5] > 100 µM | [6] > 100 µM | [20] > 100 µM | [7] > 100 µM | [8] > 100 µM | [9] > 100 µM | [10] > 100 µM | [11] > 100 µM | [12] > 100 µM | [13] > 100 µM | [14] > 100 µM | [15] > 100 µM | [16] > 100 µM | [17] > 100 µM | [18] > 100 µM

C=C(O)c1ccccc1C#Cc1ccccc1C(=O)OC
inactive: [1] > 10 µM | [2] > 10 µM | [4] > 10 µM | [5] > 10 µM | [6] > 10 µM | [20] > 10 µM | [7] 3.66 µM | [8] > 10 µM | [9] > 10 µM | [10] > 10 µM | [11] > 10 µM | [12] > 10 µM | [13] > 10 µM | [14] > 10 µM | [15] > 10 µM | [16] > 10 µM | [17] > 10 µM | [18] > 10 µM | [19] > 10 µM

O=C1C=CC[C@H](/C=C/C[C@@H](O)C[C@H](O)/C=C/c2ccccc2)O1
inactive: [1] 12.4 µM | [2] 19.3 µM | [3] 2.56 µM | [4] 3.56 µM | [5] 10.9 µM | [6] 15 µM | [7] 13.6 µM | [8] 6.4 µM | [9] 12.8 µM | [10] 11.9 µM | [11] 3.74 µM | [12] 15.8 µM | [13] 13.8 µM | [14] 15.3 µM | [15] 13.5 µM | [16] 13.3 µM | [17] 16.7 µM | [18] 16.1 µM

Cn1cnc2c1c(=O)n(CCNCCO)c(=O)n2C
inactive: [1] > 100 µM | [2] > 100 µM | [3] > 100 µM | [4] > 100 µM | [5] > 100 µM | [6] > 100 µM | [7] > 100 µM | [8] > 100 µM | [9] > 100 µM | [10] > 100 µM | [11] > 100 µM | [12] > 100 µM | [13] > 100 µM | [14] > 100 µM | [15] > 100 µM | [16] > 100 µM | [17] > 100 µM | [18] > 100 µM | [19] > 100 µM

O=C1NN=C(O)C2C3c4ccccc4C(c4ccccc43)C12 (centres undefined)
inactive: [1] > 100 µM | [2] > 100 µM | [4] > 100 µM | [5] > 100 µM | [6] > 100 µM | [20] > 100 µM | [7] > 100 µM | [8] > 100 µM | [9] > 100 µM | [10] > 100 µM | [11] > 100 µM | [12] > 100 µM | [13] > 100 µM | [14] > 100 µM | [15] > 100 µM | [16] > 100 µM | [17] > 100 µM | [18] > 100 µM | [19] > 100 µM

CC1CC(C)[C@H](O)C([C@H](O)CC2CC(=O)N(C)C(=O)C2)C1 (some centres undefined)
inactive: [1] > 100 µM | [2] > 100 µM | [3] 32.3 µM | [4] > 100 µM | [5] > 100 µM | [6] > 100 µM | [7] 95.1 µM | [8] > 100 µM | [9] > 100 µM | [10] > 100 µM | [11] > 100 µM | [12] > 100 µM | [13] > 100 µM | [14] > 100 µM | [15] > 100 µM | [16] > 100 µM | [17] > 100 µM | [18] > 100 µM | [19] > 100 µM

CCc1c(O)cc(=O)oc1-c1ccc(OC)c(OC)c1
inactive: [1] > 100 µM | [2] > 100 µM | [3] > 100 µM | [5] > 100 µM | [6] > 100 µM | [7] 72.6 µM | [8] > 100 µM | [10] > 100 µM | [11] > 100 µM | [12] > 100 µM | [13] > 100 µM | [14] > 100 µM | [15] > 100 µM | [16] > 100 µM | [17] > 100 µM | [18] > 100 µM

O=C(/C=C(\Nc1ccccc1O)c1ccccc1)C(=O)NC12CC3CC(CC(C3)C1)C2
inactive: [1] > 10 µM | [2] > 10 µM | [4] 3.52 µM | [5] > 10 µM | [20] 5.33 µM | [7] > 10 µM | [8] > 10 µM | [9] > 10 µM | [10] > 10 µM | [11] 4.33 µM | [13] > 10 µM | [14] > 10 µM | [15] > 10 µM | [16] > 10 µM | [17] > 10 µM | [18] > 10 µM | [19] 4.99 µM
